Common to all, as to format: cell-based
One assay concerns BaF3_EGFRWT cells. Put plainly: Cell growth inhibition assay, BaF3_EGFRWT. The conditions noted are these: 72 h, 80 ng/mL recombinant human EGF, 3 days treatment, CellTiterGlo 2.0, read-out: EGFR WT IC50 (nM), cell growth inhibition. In general terms: Cellular ATP, detected with luciferase, serves as a proxy for viable cell number.
The test system of a further assay is BaF3_HER2YVMA cells. Briefly: Cell growth inhibition assay, BaF3_HER2YVMA. The conditions noted are these: 72 h, BaF3_HER2YVMA cells, 3 days treatment, CellTiterGlo 2.0; read-out: HER2-YVMA IC50 (nM), cell growth inhibition.
The test system of the next assay is BaF3_HER2WT cells. Put plainly: Cell growth inhibition assay, BaF3_HER2WT. The conditions noted are these: 72 h, 3 days treatment, CellTiterGlo 2.0, read-out: HER2 WT IC50 (nM), cell growth inhibition.

SMILES strings stand for the structures.

The text below walks through data of patent US20250276983A1, “COMPOUNDS AND METHODS FOR MODULATING HER2” (IAMBIC THERAPEUTICS, INC., priority 2022, published 2025).

For orientation: IC50 means the concentration at which inhibition is half-maximal. `Cc1cc(Nc2ncnn3cnc(C4CCN(C(=O)/C=C/CN(C)C)CC4)c23)ccc1Oc1ccn2ncnc2c1` [Example 88, (E)-1-(4-(4-((4-([1,2,4]triazolo[1,5-a]pyridin-7-yloxy)-3-methylphenyl)amino)imidazo[5,1-f][1,2,4]triazin-5-yl)piperidin-1-yl)-4-(dimethylamino)but-2-en-1-one]: the IC50 was 1500 to 5000 nM in the assay with BaF3_EGFRWT cells, 1500 to 5000 nM in the assay on BaF3_HER2YVMA cells and 500 to 1500 nM with BaF3_HER2WT cells.

Regarding `Cc1cc(Nc2ncnn3ccc(C4CN(C(=O)/C(C#N)=C/C(C)(C)C)C4)c23)ccc1Oc1ccn2ncnc2c1` [Example 89, (E)-2-(3-(4-((4-([1,2,4]triazolo[1,5-a]pyridin-7-yloxy)-3-methylphenyl)amino)pyro-lo[2,1-f][1,2,4]triazin-5-yl)azetidine-1-carbonyl)-4,4-dimethylpent-2-enenitrile], the IC50 in the assay with BaF3_EGFRWT cells, with BaF3_HER2YVMA cells and in the assay with BaF3_HER2WT cells was 1500 to 5000 nM throughout.

As to `CN(C)C/C=C/C(=O)N1CC(c2ccn3ncnc(Nc4cnc(Oc5cccc(C(F)(F)F)c5)c(Cl)c4)c23)C1` [Example 90, (E)-1-(3-(4-((5-chloro-6-(3-(trifluoromethyl)phenoxy)pyridin-3-yl)amino)pyrrolo[2,1-f][1,2,4]triazin-5-yl)azetidin-1-yl)-4-(dimethylamino)but-2-en-1-one], the IC50 in the assay on BaF3_EGFRWT cells, in the assay on BaF3_HER2YVMA cells and in the assay on BaF3_HER2WT cells was 1500 to 5000 nM throughout.

Take `Cc1cc(Nc2ncnn3ccc(C4CN(C(=O)/C(F)=C/C5CCCN5C)C4)c23)ccc1Oc1ccn2ncnc2c1` (stereo not drawn) [Example 92, (Z)-1-(3-(4-((4-([1,2,4]triazolo[1,5-a]pyridin-7-yloxy)-3-methylphenyl)amino)pyrrolo[2,1-f][1,2,4]triazin-5-yl)azetidin-1-yl)-2-fluoro-3-(1-methylpyrrolidin-2-yl)prop-2-en-1-one]: the IC50 in the assay on BaF3_EGFRWT cells is 1500 to 5000 nM; in the assay on BaF3_HER2YVMA cells, below 200 nM; in the assay with BaF3_HER2WT cells it was below 200 nM.

With `COC1CN(C/C=C/C(=O)N2CCC(c3ccn4ncnc(Nc5ccc(Oc6ccn7ncnc7c6)c(C)c5)c34)CC2)C1` [Example 117, (E)-1-(4-(4-((4-([1,2,4]triazolo[1,5-a]-207-midazol-7-yloxy)-3-methylphenyl)amino)pyrrolo[2,1-f][1,2,4]triazin-5-yl)piperidin-1-yl)-4-(3-methoxyazetidin-1-yl)but-2-en-1-one], the IC50 with BaF3_EGFRWT cells was 1500 to 5000 nM; in the assay on BaF3_HER2YVMA cells, below 200 nM; in the assay with BaF3_HER2WT cells it was below 200 nM.

With `COC1CCN(C/C=C/C(=O)N2CCC(c3ccn4ncnc(Nc5ccc(Oc6ccn7ncnc7c6)c(C)c5)c34)CC2)C1` (stereo not drawn) [Example 118, E-1-(4-(4-((4-([1,2,4]triazolo[1,5-a]-207-midazol-7-yloxy)-3-methylphenyl)amino)pyrrolo[2,1-f][1,2,4]triazin-5-yl)piperidin-1-yl)-4-(3-methoxypyrrolidin-1-yl)but-2-en-1-one], the values for the IC50 in the assay on BaF3_EGFRWT cells, in the assay with BaF3_HER2YVMA cells and in the assay on BaF3_HER2WT cells were 1500 to 5000 nM, below 200 nM and below 200 nM, respectively.

Turning to `Cc1cc(Nc2ncnn3ccc(C4CCN(C(=O)/C=C/CN5CC6COCC6C5)CC4)c23)ccc1Oc1ccn2ncnc2c1` (stereo not drawn) [Example 119, E-1-(4-(4-((4-([1,2,4]triazolo[1,5-a]-208-midazol-7-yloxy)-3-methylphenyl)amino)pyrrolo[2,1-f][1,2,4]triazin-5-yl)piperidin-1-yl)-4-(tetrahydro-1H-furo[3,4-c]pyrrol-5(3H)-yl)but-2-en-1-one], the IC50 in the assay on BaF3_EGFRWT cells was 1500 to 5000 nM; in the assay on BaF3_HER2YVMA cells, below 200 nM; in the assay with BaF3_HER2WT cells, below 200 nM.

`Cc1cc(Nc2ncnn3ccc(C4CCN(C(=O)/C=C/CN5CCC6(COC6)C5)CC4)c23)ccc1Oc1ccn2ncnc2c1` [Example 120, E-1-(4-(4-((4-([1,2,4]triazolo[1,5-a]-208-midazol-7-yloxy)-3-methylphenyl)amino)pyrrolo[2,1-f][1,2,4]triazin-5-yl)piperidin-1-yl)-4-(2-oxa-6-azaspiro[3.4]octan-6-yl)but-2-en-1-one]: the IC50 in the assay with BaF3_EGFRWT cells was 1500 to 5000 nM; with BaF3_HER2YVMA cells it was below 200 nM; in the assay with BaF3_HER2WT cells, below 200 nM.

As to `C=CC(=O)N1CCN(c2ccn3ncnc(Nc4ccc(Oc5ccc6c(c5)ncn6C)c(C)c4)c23)CC1` [Example 121, 1-(4-(4-((3-methyl-4-((1-methyl-1H-benzo[d]imidazol-5-yl)oxy)phenyl)amino)pyrrolo[2,1-f][1,2,4]triazin-5-yl)piperazin-1-yl)prop-2-en-1-one], the figures for the IC50 in the assay on BaF3_EGFRWT cells, in the assay on BaF3_HER2YVMA cells and with BaF3_HER2WT cells were 500 to 1500 nM, below 200 nM and below 200 nM, respectively.

As to `Cc1cc(Nc2ncnn3ccc(C4CCN(C(=O)/C=C/CN5CCC6(COC6)C5)CC4)c23)ccc1Oc1ccc2c(c1)ncn2C` [Example 129, (E)-1-(4-(4-((3-methyl-4-((1-methyl-1H-benzo[d]imidazol-5-yl)-oxy)phenyl)amino)-pyrrolo[2,1-f][1,2,4]triazin-5-yl)piperidin-1-yl)-4-(2-oxa-6-azaspiro[3.4]octan-6-yl)but-2-en-1-one], the values for the IC50 in the assay with BaF3_EGFRWT cells, with BaF3_HER2YVMA cells and with BaF3_HER2WT cells were 1500 to 5000 nM, below 200 nM and below 200 nM, respectively.

For `Cc1cc(Nc2ncnn3ccc(C4CCN(C(=O)/C=C/CN(C)C)CC4)c23)ccc1Oc1ccc2c(c1)ncn2C` [Example 133, (E)-4-(dimethylamino)-1-(4-(4-((3-methyl-4-((1-methyl-1H-benzo[d]-224-midazole-5-yl)oxy)phenyl)amino)pyrrolo[2,1-f][1,2,4]triazin-5-yl)piperidin-1-yl)but-2-en-1-one], the values for the IC50 in the assay on BaF3_EGFRWT cells, in the assay with BaF3_HER2YVMA cells and in the assay on BaF3_HER2WT cells were 1500 to 5000 nM, below 200 nM and below 200 nM, respectively.

Regarding `Cc1cc(Nc2ncnn3ccc(C4CN(C(=O)/C=C/CN(C)C)C4)c23)ccc1Oc1ccn2cnnc2c1` [Example 134, (E)-1-(3-(4-((4-([1,2,4]triazolo[4,3-a]pyridin-7-yloxy)-3-methylphenyl)amino)pyrrolo[2,1-f][1,2,4]triazin-5-yl)azetidin-1-yl)-4-(dimethylamino)but-2-en-1-one], the IC50 in the assay on BaF3_EGFRWT cells was 1500 to 5000 nM; in the assay on BaF3_HER2YVMA cells, 1500 to 5000 nM; with BaF3_HER2WT cells, 200 to 500 nM.

For `C=CC(=O)N1C[C@H]2C[C@@H]1C[C@@H]2c1ccn2ncnc(Nc3ccc(Oc4ccn5ncnc5c4)c(C)c3)c12` [Example 141, 1-[(1S,4S,5S)-5-{4-[(3-methyl-4-{[1,2,4]triazolo[1,5-a]pyridin-7-yloxy}phenyl)amino]pyrrolo[2,1-f][1,2,4]triazin-5-yl}-2-azabicyclo[2.2.1]heptan-2-yl]prop-2-en-1-one], the results for the IC50 with BaF3_EGFRWT cells, in the assay with BaF3_HER2YVMA cells and with BaF3_HER2WT cells were 1500 to 5000 nM, 500 to 1500 nM and 200 to 500 nM, respectively.

In the case of `Cc1cc(Nc2ncnn3ccc(C4CCN(C(=O)/C=C/C(=O)O)CC4)c23)ccc1Oc1ccn2ncnc2c1` [Example 142, (E)-4-(4-(4-((4-([1,2,4]triazolo[1,5-a]pyridin-7-yloxy)-3-methylphenyl)amino)pyrrolo[2,1-f][1,2,4]triazin-5-yl)piperidin-1-yl)-4-oxobut-2-enoic acid], the half-maximal inhibitory concentration (IC50) in the assay with BaF3_EGFRWT cells, with BaF3_HER2YVMA cells and with BaF3_HER2WT cells was 1500 to 5000 nM in each case.

As to `Cc1cc(Nc2ncnn3ccc(C4CCN(C(=O)/C=C/CN)CC4)c23)ccc1Oc1ccn2ncnc2c1` [Example 150, (E)-1-(4-(4-((4-([1,2,4]triazolo[1,5-a]pyridin-7-yloxy)-3-methylphenyl)amino)pyrrolo[2,1-f][1,2,4]triazin-5-yl)piperidin-1-yl)-4-aminobut-2-en-1-one], the IC50 is 1500 to 5000 nM in the assay on BaF3_EGFRWT cells, 1500 to 5000 nM with BaF3_HER2YVMA cells and 500 to 1500 nM with BaF3_HER2WT cells.

Consider `CNC/C=C/C(=O)N1CC(c2ccn3ncnc(Nc4ccc(Oc5ccn6ncnc6c5)c(C)c4)c23)C1` [Example 151, (E)-1-(3-(4-((4-([1,2,4]triazolo[1,5-a]pyridin-7-yloxy)-3-methylphenyl)amino)pyrrolo[2,1-f][1,2,4]triazin-5-yl)azetidin-1-yl)-4-(methylamino)but-2-en-1-one], for which the results for the IC50 in the assay on BaF3_EGFRWT cells, in the assay with BaF3_HER2YVMA cells and in the assay on BaF3_HER2WT cells were 1500 to 5000 nM, below 200 nM and below 200 nM, respectively.

Consider `Cc1cc(Nc2ncnn3cc(F)c(C4CCN(C(=O)/C=C/CN(C)C)CC4)c23)ccc1Oc1ccn2ncnc2c1` [Example 152, (E)-1-(4-(4-((4-([1,2,4]triazolo[1,5-a]pyridin-7-yloxy)-3-methylphenyl)amino)-6-fluoropyrrolo[2,1-f][1,2,4]triazin-5-yl)piperidin-1-yl)-4-(dimethylamino)but-2-en-1-one], for which the IC50 in the assay with BaF3_EGFRWT cells was 1500 to 5000 nM; with BaF3_HER2YVMA cells, below 200 nM; in the assay on BaF3_HER2WT cells, below 200 nM.

In the case of `CNC/C=C/C(=O)N1CC(c2ccn3ncnc(Nc4ccc(Oc5ccc6c(c5)ncn6C)c(C)c4)c23)C1` [Example 153, (E)-1-(3-(4-((3-methyl-4-((1-methyl-1H-benzo[d]imidazol-5-yl)oxy)phenyl)amino)pyrrolo[2,1-f][1,2,4]triazin-5-yl)azetidin-1-yl)-4-(methylamino)but-2-en-1-one], the half-maximal inhibitory concentration (IC50) with BaF3_EGFRWT cells, with BaF3_HER2YVMA cells and in the assay with BaF3_HER2WT cells was 1500 to 5000 nM throughout.

In the case of `Cc1cc(Nc2ncnn3ccc(C4CCN(C(=O)/C=C/CO)CC4)c23)ccc1Oc1ccn2ncnc2c1` [Example 154, (E)-1-(4-(4-((4-([1,2,4]triazolo[1,5-a]pyridin-7-yloxy)-3-methylphenyl)amino)pyrrolo[2,1-f][1,2,4]triazin-5-yl)piperidin-1-yl)-4-hydroxybut-2-en-1-one], the figures for the IC50 with BaF3_EGFRWT cells, in the assay with BaF3_HER2YVMA cells and in the assay with BaF3_HER2WT cells were 1500 to 5000 nM, below 200 nM and below 200 nM, respectively.

For the compound `Cc1cc(Nc2ncnn3ccc(C4CN(C(=O)/C=C/CN(C)C)C4)c23)ccc1Oc1ccn2ccnc2c1` [Example 157, (E)-4-(dimethylamino)-1-(3-(4-((4-(imidazo[1,2-a]pyridin-7-yloxy)-3-methylphenyl)amino)pyrrolo [2,1-f][1,2,4]triazin-5-yl)azetidin-1-yl)but-2-en-1-one], the IC50 was 1500 to 5000 nM in the assay on BaF3_EGFRWT cells, below 200 nM with BaF3_HER2YVMA cells and below 200 nM in the assay with BaF3_HER2WT cells.
